Format in all cases: functional
Assay [1] relates to Pasteurella multocida. Briefly: In vitro antibacterial activity against Pasteurella multocida 59A0067.
The subject of assay [2] is Staphylococcus aureus. Briefly: In vitro antibacterial activity against Staphylococcus aureus 01A0758.
Assay [3] has as its system Escherichia coli. Briefly: In vitro antibacterial activity against Escherichia coli 51A0150.

These results are taken from ChEMBL document CHEMBL1136696, “Azalide 3,6-ketals: antibacterial activity and structure-activity relationships of aryl and hetero aryl substituted analogues” (Bioorg Med Chem Lett, 2003).

One may read the MIC as the smallest concentration in the dilution series that meets the test's criterion for growth inhibition.

≈ marks a conversion by molar mass, not a printed value. A value given as a limit tells only on which side of the number the result lay.

Consider `CC[C@H]1OC(=O)[C@H](C)[C@H]2OC3(CCN(c4ccc([N+](=O)[O-])c(N)n4)CC3)O[C@](C)(C[C@@H](C)CN[C@H](C)[C@@H](O)[C@]1(C)O)[C@H](O[C@@H]1O[C@H](C)CC(N(C)C)[C@H]1O)[C@H]2C` (stereo not given in full), for which the MIC in assay [1] came to 0.1 mg/L (≈ 0.126 µM); in assay [2], 1.56 mg/L (≈ 1.96 µM); in assay [3] it was 3.13 mg/L (≈ 3.94 µM).
With `CC[C@H]1OC(=O)[C@H](C)[C@H]2OC3(CCN(c4ncc(C(=O)OCc5ccccc5)c(C(F)(F)F)n4)CC3)O[C@](C)(C[C@@H](C)CN[C@H](C)[C@@H](O)[C@]1(C)O)[C@H](O[C@@H]1O[C@H](C)CC(N(C)C)[C@H]1O)[C@H]2C` (stereo not given in full), the MIC was over 50 mg/L in assay [1], 0.78 mg/L (≈ 0.831 µM) in assay [2] and over 50 mg/L in assay [3].
In the case of `CC[C@H]1OC(=O)[C@H](C)[C@H]2OC3(CCN(c4nc5ccccc5[nH]4)CC3)O[C@](C)(C[C@@H](C)CN(C)[C@H](C)[C@@H](O)[C@]1(C)O)[C@H](O[C@@H]1O[C@H](C)CC(N(C)C)[C@H]1O)[C@H]2C` (stereo not given in full), the MIC came to 0.1 mg/L (≈ 0.127 µM) in assay [1], 3.13 mg/L (≈ 3.97 µM) in assay [2] and 1.56 mg/L (≈ 1.98 µM) in assay [3].
The like results for `CC[C@H]1OC(=O)[C@H](C)[C@H]2OC3(CCN(c4ccc([N+](=O)[O-])cc4)CC3)O[C@](C)(C[C@@H](C)CN(C)[C@H](C)[C@@H](O)[C@]1(C)O)[C@H](O[C@@H]1O[C@H](C)CC(N(C)C)[C@H]1O)[C@H]2C` (stereo not given in full) were, in that order, 0.39 mg/L (≈ 0.492 µM), 1.56 mg/L (≈ 1.97 µM) and 6.25 mg/L (≈ 7.88 µM).
As to `CC[C@H]1OC(=O)[C@H](C)[C@H]2OC3(CCN(c4cc(OC)nc(OC)n4)CC3)O[C@](C)(C[C@@H](C)CN[C@H](C)[C@@H](O)[C@]1(C)O)[C@H](O[C@@H]1O[C@H](C)CC(N(C)C)[C@H]1O)[C@H]2C` (stereo not given in full), the results for the MIC in assay [1], in assay [2] and in assay [3] were 0.2 mg/L (≈ 0.251 µM), 1.56 mg/L (≈ 1.96 µM) and 3.13 mg/L (≈ 3.93 µM), respectively.
The like results for `CC[C@H]1OC(=O)[C@H](C)[C@H]2OC3(CCN(c4nc(C)ccc4C#N)CC3)O[C@](C)(C[C@@H](C)CN[C@H](C)[C@@H](O)[C@]1(C)O)[C@H](O[C@@H]1O[C@H](C)CC(N(C)C)[C@H]1O)[C@H]2C` (stereo not given in full) were, in that order, 0.78 mg/L (≈ 1.01 µM), 0.78 mg/L (≈ 1.01 µM) and 6.25 mg/L (≈ 8.07 µM).
In the same order, the values of `CC[C@H]1OC(=O)[C@H](C)[C@H]2OC3(CCN(c4ccc(C#N)cn4)CC3)O[C@](C)(C[C@@H](C)CN[C@H](C)[C@@H](O)[C@]1(C)O)[C@H](O[C@@H]1O[C@H](C)CC(N(C)C)[C@H]1O)[C@H]2C` (stereo not given in full) are 0.2 mg/L (≈ 0.263 µM), 1.56 mg/L (≈ 2.05 µM) and 6.25 mg/L (≈ 8.22 µM).
The like results for `CC[C@H]1OC(=O)[C@H](C)[C@H]2OC3(CCN(c4ccc(C(=O)N(C)c5ccncc5)cc4F)CC3)O[C@](C)(C[C@@H](C)CN(C)[C@H](C)[C@@H](O)[C@]1(C)O)[C@H](O[C@@H]1O[C@H](C)CC(N(C)C)[C@H]1O)[C@H]2C` (stereo not given in full) were, in that order, 0.2 mg/L (≈ 0.222 µM), 3.13 mg/L (≈ 3.48 µM) and 1.56 mg/L (≈ 1.73 µM).
Take `CC[C@H]1OC(=O)[C@H](C)[C@H]2OC3(CCN(c4ccc(C(=O)OCc5ccccc5)c(C(F)(F)F)c4)CC3)O[C@](C)(C[C@@H](C)CN[C@H](C)[C@@H](O)[C@]1(C)O)[C@H](O[C@@H]1O[C@H](C)CC(N(C)C)[C@H]1O)[C@H]2C` (stereo not given in full): the MIC in assay [1] was 6.25 mg/L (≈ 6.68 µM); in assay [2], 0.78 mg/L (≈ 0.833 µM); in assay [3], over 50 mg/L.
In the same order, the values of `CC[C@H]1OC(=O)[C@H](C)[C@H]2OC3(CCN(c4ncc(C(=O)NCc5ccncc5)cn4)CC3)O[C@](C)(C[C@@H](C)CN(C)[C@H](C)[C@@H](O)[C@]1(C)O)[C@H](O[C@@H]1O[C@H](C)CC(N(C)C)[C@H]1O)[C@H]2C` (stereo not given in full) are over 50 mg/L, 3.52 mg/L (≈ 3.98 µM) and over 50 mg/L.
